Data on five compounds can be found in patent publication US12252524B2, “GIP/GLP1 co-agonist compounds” (Eli Lilly and Company, priority 2018, dated 2025).

Numbered stars: 1 amine (or outer) side, 2 acyl side, 3 side chain; on linkers, the order of the positions; unused ones are H or OH. Square brackets hold non-standard residues; d marks the D form. Side chains are listed from the residue outwards. Peptide text beside a SMILES is read from it. * marks the point of attachment. C20 diacid = O=C(O)CCCCCCCCCCCCCCCCCCC(=O)*; γGlu = O=C(O)[C@H](CCC(=O)[*:2])N[*:1]; αMeL = CC(C)C[C@](C)(N)C(=O)O; αMeK = C[C@](N)(CCCCN)C(=O)O; AEEA = NCCOCCOCC(=O)O; Aib = CC(C)(N)C(=O)O Where only a bound is given, the exact number is not on record here.

The target of test [1] is T1, gastric inhibitory peptide receptor (GIPR) (Homo sapiens, UniProt P48546).
T1 sequence (P48546 22-466): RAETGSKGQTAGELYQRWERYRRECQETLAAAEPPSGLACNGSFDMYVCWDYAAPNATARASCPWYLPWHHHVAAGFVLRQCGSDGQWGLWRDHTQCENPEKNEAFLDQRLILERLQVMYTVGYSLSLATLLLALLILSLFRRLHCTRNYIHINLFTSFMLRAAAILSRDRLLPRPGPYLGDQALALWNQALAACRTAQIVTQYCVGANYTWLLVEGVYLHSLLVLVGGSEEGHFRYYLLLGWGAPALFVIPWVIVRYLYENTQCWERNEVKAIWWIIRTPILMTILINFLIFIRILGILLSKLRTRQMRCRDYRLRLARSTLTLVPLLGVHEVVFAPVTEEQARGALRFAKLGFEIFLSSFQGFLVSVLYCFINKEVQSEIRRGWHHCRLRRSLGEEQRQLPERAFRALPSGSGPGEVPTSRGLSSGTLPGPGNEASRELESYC
Briefly: cAMP pharmacological functional assay in presence of casein, hGIPR. It is filed as cell-based. The settings on record: HEK293 cells expressing hGIPR, 0.1% Casein, geometric mean; read-out: hGIPR cAMP Rel EC50 nM (SEM, n).

The target in test [2] is human GLP-1 receptor (GLP-1R) (Homo sapiens, UniProt P43220). Briefly: cAMP pharmacological functional assay in presence of casein, hGLP-1R. The settings on record: HEK293 cells expressing hGLP-1R, 0.1% Casein, geometric mean; read-out: hGLP1R cAMP Rel EC50 nM (SEM, n). The test is classed as cell-based.
In the next test the target is human GLP-1R (Homo sapiens, UniProt P43220). Briefly: [125I]-GLP-1 binding (SPA), human GLP-1 receptor. The arrangement: expressed in transfected cells; crude membranes. Conditions: read-out: hGLP1R Ki, (nM) (SEM, n). The gist of the method:
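Crude-membrane binding assay; one membrane prep included 1 mM MgCl2 and 25 units/ml DNAse I during lysis. Assay buffer at pH 7.4 contains 0.1% (w/v) bacitracin and 0.003% (w/v) TWEEN-20. Ki is reported as geometric mean.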

The target of another test is T2, human GIP receptor (Homo sapiens, UniProt P48546).
T2 construct: expressed in transfected cells; crude membranes
T2 sequence (P48546 22-466): T1 sequence (P48546 22-466)
Briefly: [125I]-GIP binding (SPA), human GIP receptor. Conditions: read-out: hGIPR Ki, nM (SEM, n).

The target in a further test is T3, human Gcg receptor (Homo sapiens, UniProt P47871).
T3 construct: expressed in transfected cells; crude membranes
Briefly: [125I]-Glucagon binding (SPA), human Gcg receptor. Conditions: read-out: hGLcgR Ki, nM (SEM, n). The gist of the method:
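Cell pellets were lysed in hypotonic Tris buffer, pH 7.5, homogenized, and spun at low then high speed to give crude membranes. Ki was derived from the fitted IC50.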

T3 sequence (P47871 26-477): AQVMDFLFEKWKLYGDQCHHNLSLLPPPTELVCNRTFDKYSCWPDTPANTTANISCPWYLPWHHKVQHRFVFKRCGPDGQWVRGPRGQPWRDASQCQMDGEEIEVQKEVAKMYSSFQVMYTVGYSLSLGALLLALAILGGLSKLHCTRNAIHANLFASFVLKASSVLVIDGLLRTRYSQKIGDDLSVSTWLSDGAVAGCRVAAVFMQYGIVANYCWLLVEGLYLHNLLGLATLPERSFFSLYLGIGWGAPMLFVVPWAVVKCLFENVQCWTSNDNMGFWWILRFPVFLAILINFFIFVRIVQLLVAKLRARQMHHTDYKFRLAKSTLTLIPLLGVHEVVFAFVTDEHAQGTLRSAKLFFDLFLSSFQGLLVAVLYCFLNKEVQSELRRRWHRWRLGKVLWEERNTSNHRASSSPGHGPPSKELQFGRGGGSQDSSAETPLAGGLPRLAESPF
Chain of human GLP-1 receptor (GLP-1R) (P43220 24-463): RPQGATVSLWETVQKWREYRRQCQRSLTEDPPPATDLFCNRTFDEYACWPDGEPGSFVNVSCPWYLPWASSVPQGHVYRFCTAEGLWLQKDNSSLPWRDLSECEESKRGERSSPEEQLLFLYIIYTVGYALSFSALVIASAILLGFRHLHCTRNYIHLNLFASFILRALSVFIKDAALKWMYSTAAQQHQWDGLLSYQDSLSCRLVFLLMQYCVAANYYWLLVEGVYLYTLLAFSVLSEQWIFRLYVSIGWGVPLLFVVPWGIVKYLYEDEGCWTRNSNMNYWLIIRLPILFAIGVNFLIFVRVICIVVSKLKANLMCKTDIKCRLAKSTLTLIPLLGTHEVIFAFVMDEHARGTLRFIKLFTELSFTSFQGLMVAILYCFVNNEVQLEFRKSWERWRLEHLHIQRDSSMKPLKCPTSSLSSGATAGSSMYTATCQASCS
Chain of human GLP-1R (P43220 24-463): as above

A word on the EC50: it is the midpoint of the concentration-response curve. Broadly, the Ki is a dissociation constant, usually derived from enzyme kinetics or from competition with a known ligand. For the compound `CC[C@H](C)[C@H](NC(=O)[C@H](CC(C)C)NC(=O)[C@H](Cc1ccc(O)cc1)NC(=O)[C@H](CCC(=O)O)NC(=O)[C@@H](NC(=O)[C@H](Cc1ccccc1)NC(=O)[C@H](C)NC(=O)C(C)(C)NC(=O)[C@H](CCC(N)=O)NC(=O)[C@H](C)NC(=O)[C@H](CCCCNC(=O)COCCOCCNC(=O)COCCOCCNC(=O)CC[C@H](NC(=O)CCCCCCCCCCCCCCCCCCC(=O)O)C(=O)O)NC(=O)[C@H](CCCCN)NC(=O)[C@H](CC(=O)O)NC(=O)[C@H](CC(C)C)NC(=O)[C@](C)(CC(C)C)NC(=O)[C@@H](NC(=O)[C@H](CO)NC(=O)[C@H](Cc1ccc(O)cc1)NC(=O)[C@H](CC(=O)O)NC(=O)[C@H](CO)NC(=O)[C@@H](NC(=O)[C@H](Cc1ccccc1)NC(=O)[C@@H](NC(=O)CNC(=O)[C@H](CCC(=O)O)NC(=O)C(C)(C)NC(=O)[C@@H](N)Cc1ccc(O)cc1)[C@@H](C)O)[C@@H](C)O)[C@@H](C)CC)[C@@H](C)CC)C(=O)N[C@@H](CCC(=O)O)C(=O)NCC(=O)NCC(=O)N1CCC[C@H]1C(=O)N[C@@H](CO)C(=O)N[C@@H](CO)C(=O)NCC(=O)N[C@@H](C)C(=O)N1CCC[C@H]1C(=O)N1CCC[C@H]1C(=O)N1CCC[C@H]1C(=O)N[C@@H](CO)C(N)=O` [Example 20], the EC50 is 0.0556 nM in test [1] and 0.117 nM in test [2]. Further, the inhibition constant (Ki) on human GLP-1R worked out at 3.3 nM; at human GIP receptor it was 0.0849 nM; at human Gcg receptor, 228 nM.
Taken in the same sequence, the figures for `CC[C@H](C)[C@H](NC(=O)[C@H](Cc1ccccc1)NC(=O)[C@H](C)NC(=O)[C@](C)(CCCCN)NC(=O)[C@H](CCC(N)=O)NC(=O)[C@H](C)NC(=O)[C@H](CCCCNC(=O)COCCOCCNC(=O)COCCOCCNC(=O)CC[C@H](NC(=O)CCCCCCCCCCCCCCCCCCC(=O)O)C(=O)O)NC(=O)[C@H](CCC(=O)O)NC(=O)[C@H](CC(=O)O)NC(=O)[C@H](CC(C)C)NC(=O)[C@](C)(CC(C)C)NC(=O)[C@@H](NC(=O)[C@H](CO)NC(=O)[C@H](Cc1ccc(O)cc1)NC(=O)[C@H](CC(=O)O)NC(=O)[C@H](CO)NC(=O)[C@@H](NC(=O)[C@H](Cc1ccccc1)NC(=O)[C@@H](NC(=O)CNC(=O)[C@H](CCC(=O)O)NC(=O)C(C)(C)NC(=O)[C@@H](N)Cc1ccc(O)cc1)[C@@H](C)O)[C@@H](C)O)[C@@H](C)CC)C(=O)N[C@@H](CCC(=O)O)C(=O)N[C@@H](Cc1ccc(O)cc1)C(=O)N[C@@H](CC(C)C)C(=O)N[C@@H](CC(C)C)C(=O)N[C@@H](CCC(=O)O)C(=O)NCC(=O)NCC(=O)N1CCC[C@H]1C(=O)N[C@@H](CO)C(=O)N[C@@H](CO)C(=O)NCC(=O)N[C@@H](C)C(=O)N1CCC[C@H]1C(=O)N1CCC[C@H]1C(=O)N1CCC[C@H]1C(=O)N[C@@H](CO)C(N)=O` [Example 21] (H-Y[Aib]EGTFTSDYSI[αMeL]LDEK([AEEA-AEEA-γGlu-C20 diacid])AQ[αMeK]AFIEYLLEGGPSSGAPPPS-NH2) were 0.0748 nM, 0.16 nM, 14.5 nM, 0.529 nM and 149 nM.
Regarding `CC[C@H](C)[C@H](NC(=O)[C@H](Cc1ccccc1)NC(=O)[C@H](C)NC(=O)[C@](C)(CCCCN)NC(=O)[C@H](CCC(N)=O)NC(=O)[C@H](C)NC(=O)[C@H](CCCCNC(=O)COCCOCCNC(=O)COCCOCCNC(=O)CC[C@H](NC(=O)CCCCCCCCCCCCCCCCCCC(=O)O)C(=O)O)NC(=O)[C@H](CCC(=O)O)NC(=O)[C@H](CC(=O)O)NC(=O)[C@H](CC(C)C)NC(=O)[C@](C)(CC(C)C)NC(=O)[C@@H](NC(=O)[C@H](CO)NC(=O)[C@H](Cc1ccc(O)cc1)NC(=O)[C@H](CC(=O)O)NC(=O)[C@H](CO)NC(=O)[C@@H](NC(=O)[C@H](Cc1ccccc1)NC(=O)[C@@H](NC(=O)CNC(=O)[C@H](CCC(=O)O)NC(=O)C(C)(C)NC(=O)[C@@H](N)Cc1ccc(O)cc1)[C@@H](C)O)[C@@H](C)O)[C@@H](C)CC)C(=O)N[C@@H](CCC(=O)O)C(=O)N[C@@H](Cc1ccc(O)cc1)C(=O)N[C@@H](CC(C)C)C(=O)N[C@@H](CC(C)C)C(=O)N[C@@H](CCC(=O)O)C(=O)NC(C)(C)C(=O)NCC(=O)N1CCC[C@H]1C(=O)N[C@@H](CO)C(=O)N[C@@H](CO)C(=O)NCC(=O)N[C@@H](C)C(=O)N1CCC[C@H]1C(=O)N1CCC[C@H]1C(=O)N1CCC[C@H]1C(=O)N[C@@H](CO)C(N)=O` [Example 22] (H-Y[Aib]EGTFTSDYSI[αMeL]LDEK([AEEA-AEEA-γGlu-C20 diacid])AQ[αMeK]AFIEYLLE[Aib]GPSSGAPPPS-NH2; N-terminus assumed), the EC50 in test [1] came to 0.0842 nM; in test [2] it was 0.206 nM. Moreover, the Ki at human GLP-1R amounted to 23.1 nM; on human GIP receptor, 0.624 nM; at human Gcg receptor, 53.4 nM.
In the case of `CC[C@H](C)[C@H](NC(=O)[C@H](CCCCN)NC(=O)[C@H](CC(=O)O)NC(=O)[C@H](CC(C)C)NC(=O)[C@H](CC(C)C)NC(=O)[C@@H](NC(=O)[C@H](CO)NC(=O)[C@H](CCCCNC(=O)COCCOCCNC(=O)COCCOCCNC(=O)CC[C@H](NC(=O)CCCCCCCCCCCCCCCCCCC(=O)O)C(=O)O)NC(=O)[C@H](CC(=O)O)NC(=O)[C@H](CO)NC(=O)[C@@H](NC(=O)[C@H](Cc1ccccc1)NC(=O)[C@@H](NC(=O)CNC(=O)[C@H](CCC(=O)O)NC(=O)C(C)(C)NC(=O)[C@@H](N)Cc1ccc(O)cc1)[C@@H](C)O)[C@@H](C)O)[C@@H](C)CC)C(=O)N[C@@H](C)C(=O)N[C@@H](CCC(N)=O)C(=O)NC(C)(C)C(=O)N[C@@H](C)C(=O)N[C@@H](Cc1ccccc1)C(=O)N[C@H](C(=O)N[C@@H](CCC(=O)O)C(=O)N[C@@H](Cc1ccc(O)cc1)C(=O)N[C@@H](CC(C)C)C(=O)N[C@H](C(=O)N[C@@H](CCC(=O)O)C(=O)NCC(=O)NCC(=O)N1CCC[C@H]1C(=O)N[C@@H](CO)C(=O)N[C@@H](CO)C(=O)NCC(=O)N[C@@H](C)C(=O)N1CCC[C@H]1C(=O)N1CCC[C@H]1C(=O)N1CCC[C@H]1C(=O)N[C@@H](CO)C(N)=O)[C@@H](C)CC)[C@@H](C)CC` [Example 23] (H-Y[Aib]EGTFTSDK([AEEA-AEEA-γGlu-C20 diacid])SILLDKIAQ[Aib]AFIEYLIEGGPSSGAPPPS-NH2), the EC50 in test [1] amounted to 0.204 nM; in test [2], 0.19 nM. Moreover, the Ki on human GLP-1R is 6.32 nM; on human GIP receptor, 0.258 nM; on human Gcg receptor it was above 1010 nM.
As for `CC[C@H](C)[C@H](NC(=O)[C@H](CCCCN)NC(=O)[C@H](CC(=O)O)NC(=O)[C@H](CC(C)C)NC(=O)[C@H](CC(C)C)NC(=O)[C@@H](NC(=O)[C@H](CCCCNC(=O)COCCOCCNC(=O)COCCOCCNC(=O)CC[C@H](NC(=O)CCCCCCCCCCCCCCCCCCC(=O)O)C(=O)O)NC(=O)[C@H](Cc1ccc(O)cc1)NC(=O)[C@H](CC(=O)O)NC(=O)[C@H](CO)NC(=O)[C@@H](NC(=O)[C@H](Cc1ccccc1)NC(=O)[C@@H](NC(=O)CNC(=O)[C@H](CCC(=O)O)NC(=O)C(C)(C)NC(=O)[C@@H](N)Cc1ccc(O)cc1)[C@@H](C)O)[C@@H](C)O)[C@@H](C)CC)C(=O)N[C@@H](C)C(=O)N[C@@H](CCC(N)=O)C(=O)NC(C)(C)C(=O)N[C@@H](C)C(=O)N[C@@H](Cc1ccccc1)C(=O)N[C@H](C(=O)N[C@@H](CCC(=O)O)C(=O)N[C@@H](Cc1ccc(O)cc1)C(=O)N[C@@H](CC(C)C)C(=O)N[C@H](C(=O)N[C@@H](CCC(=O)O)C(=O)NCC(=O)NCC(=O)N1CCC[C@H]1C(=O)N[C@@H](CO)C(=O)N[C@@H](CO)C(=O)NCC(=O)N[C@@H](C)C(=O)N1CCC[C@H]1C(=O)N1CCC[C@H]1C(=O)N1CCC[C@H]1C(=O)N[C@@H](CO)C(N)=O)[C@@H](C)CC)[C@@H](C)CC` [Example 24] (H-Y[Aib]EGTFTSDYK([AEEA-AEEA-γGlu-C20 diacid])ILLDKIAQ[Aib]AFIEYLIEGGPSSGAPPPS-NH2), the EC50 was determined as 0.762 nM in test [1] and 13 nM in test [2]. For the same compound, the Ki was 5.04 nM at human GLP-1R, 0.232 nM on human GIP receptor and 49.8 nM on human Gcg receptor.
